In patent publication US10364263B2, “Cyclic phosphates and cyclic phosphoramidates for the treatment of neurologic disorders” (Retrophin, Inc., priority 2015, dated 2019):
Read-outs that look alike come from different tables or passages of the source.

Legend:
[1] = Stability in human hepatocytes; type: in vitro ADME; conditions: for half-life at 5 µM: t1/2, Human Hepatocytes; for half-life: 5 μM, 1 million cells/ml, 37° C., human hepatocytes
Experimental: (§1) Stability in hepatocytes for select compounds disclosed in the application was evaluated in two species (mouse and human) according to the following procedure. Compounds and positive control samples were dissolved in 100% DMSO at 5 mM. Cryopreserved hepatocytes were thawed and resuspended in Hepatocyte Basal Medium (HBM-Lonza CC-3199) supplemented with CC-4182 (complete hepatocyte culture medium). Test compounds were diluted into cell suspension (1 million cells/ml) from the stock solutions to have a test compound concentration of 5 μM (0.1% DMSO). Incubation was performed in 24-well plates, at 37° C. in a DUBNOFF water bath, under low shaking. Each compound was tested at 6 time points, in duplicates (0, 15, 30, 60, 120 and 240 min). At each time point, an aliquot of 120 μl was taken and transferred to a 96-well deep plate. The reaction was stopped with the addition of one volume of 100% acetonitrile plus 0.1% formic acid and the appropriate internal standard. Then samples were centrifuged at 1100×g for 30 min at +4° C. and supernatants were transferred to a new 96-deepwell plate. Samples were evaporated under N2 and reconstituted in H2O/ACN 0.1% Formic Acid (98:2). Analysis was performed without a calibration curve (Acquity UPLC-Waters; Sciex API4000). Time 0 was obtained adding acetonitrile before addition of the test compound. […] The half-life (t1/2) expressed in hours is derived using Equation 1 as shown in Example 64.

[2] = Stability in mouse hepatocytes; type: in vitro ADME
Experimental: as §1

[3] = Stability in mouse plasma; type: in vitro ADME
Procedure, shortened: (§2)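 Test compound at 3 μM (0.1% DMSO) was incubated in mouse or human plasma at 37 °C and sampled in duplicate at 0, 10, 20, 30, 40 and 60 min. Reactions were stopped with acetonitrile/formic acid containing internal standard. Remaining parent was measured by UPLC-MS/MS without a calibration curve.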

[4] = Stability in human plasma; type: in vitro ADME; conditions: 37° C.
Procedure, shortened: as §2

[5] = tested on: PANK2 silenced human neuroblastoma IMR32 cells (PANK2−/−); assay: Coenzyme A assay in PANK2 silenced cells (LC-MS quantification of free CoA); type: cell-based; conditions: compound added twice (24 h + 24 h), relative to 0.1% DMSO controls
Procedure, shortened: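 PANK2 shRNA-silenced IMR32 neuroblastoma cells were treated with compound (0.1% DMSO) for 24 h, then re-dosed with fresh compound for a further 24 h at 37 °C. TFA extracts of 1×10^6 cells were assayed for free CoA by LC-MS/MS (MRM 768.1→261.6/136.1). Results are given as fold change versus DMSO controls.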

[6] = t1/2, Mouse Hepatocytes, Diastereoisomer A
[7] = t1/2, Mouse Hepatocytes, Diastereoisomer B
[8] = human, plasma, Diastereoisomer A (upfield shift in 31P NMR), read-out: t1/2, Human Plasma, Diastereoisomer A (converted)
[9] = human, plasma, Diastereoisomer B, read-out: t1/2, Human Plasma, Diastereoisomer B (converted)
[10] = Diastereoisomer A (upfield shift in 31P NMR), read-out: t1/2, Human Hepatocytes, Diastereoisomer A (converted)
[11] = Diastereoisomer A (upfield shift in 31P NMR), 5 μM, 1 million cells/ml, 37° C., mouse hepatocytes, read-out: t1/2, Mouse Hepatocytes, Diastereoisomer A (converted)
[12] = Diastereoisomer A (upfield shift in 31P NMR), 3 μM, 37° C., mouse plasma, read-out: t1/2, Mouse Plasma, Diastereoisomer A
[13] = Diastereoisomer A (upfield shift in 31P NMR), read-out: t1/2, Human Plasma, Diastereoisomer A (converted)

Structure (SMILES)	half-life at 5 µM ([1]; Diastereoisomer A)	half-life at 5 µM ([1]; Diastereoisomer B)	half-life at 5 µM [2, 6]	half-life at 5 µM [2, 7]	half-life at 3 µM ([3]; mouse, plasma)	t1/2, Mouse Plasma, Diastereoisomer B ([3]; mouse, plasma, 3 µM)	half-life at 3 µM [4, 8]	half-life at 3 µM [4, 9]	PANK2−/− CoA (Fold Increase): fold increase in Coenzyme A (CoA) levels relative to controls [5]	half-life [1, 10]	half-life at 5 µM [2, 11]	half-life at 3 µM [3, 12]	half-life at 3 µM [4, 13]	half-life ([1]; Diastereoisomer B, read-out: t1/2, Human Hepatocytes, Diastereoisomer B (converted))	half-life at 5 µM ([2]; Diastereoisomer B, 5 μM, 1 million cells/ml, 37° C., mouse hepatocytes, read-out: t1/2, Mouse Hepatocytes, Diastereoisomer B (converted))	t1/2, Mouse Plasma, Diastereoisomer B ([3]; Diastereoisomer B, 3 μM, 37° C., mouse plasma)	t1/2, Human Plasma, Diastereoisomer B ([4]; Diastereoisomer B, 3 μM)
CC(C)(C)C(=O)OCOP1(=O)OCC(C)(C)[C@H](C(=O)NCCC(=O)OCc2ccncc2)O1 (stereo in doubt) [Compound No. 71, (((2S,4R)-5,5-dimethyl-2-oxido-4-((3-oxo-3-(pyridin-4-ylmethoxy)propyl)carbamoyl)-1,3,2-dioxaphosphinan-2-yl)oxy)methyl pivalate]	< 15 min	< 15 min	< 15 min	< 15 min	< 9.6 min	<9.6 min	> 60 min	< 9.6 min	39.37 Fold Increase	–	–	–	–	–	–	–	–
COC(=O)CCNC(=O)[C@@H]1OP(=O)(N[C@H](C(=O)OCc2ccccc2)C(C)C)OCC1(C)C (stereo partly drawn) [compound 13, benzyl ((4R)-4-((3-methoxy-3-oxopropyl)carbamoyl)-5,5-dimethyl-2-oxido-1,3,2-dioxaphosphinan-2-yl)-L-valinate]	31.8 min	< 15 min	28.2 min	24 min	< 9.6 min	<9.6 min	> 60 min	> 60 min	1 Fold Increase	–	–	–	–	–	–	–	–
COC(=O)CCNC(=O)[C@@H]1OP(=O)(N[C@H](C(=O)OC(C)(C)C)C2CCCCC2)OCC1(C)C (stereo partly drawn) [compound 14, methyl 3-((4R)-2-(((S)-2-(tert-butoxy)-1-cyclohexyl-2-oxoethyl)amino)-5,5-dimethyl-2-oxido-1,3,2-dioxaphosphinane-4-carboxamido)propanoate]	17.4 min	< 15 min	< 15 min	< 15 min	< 9.6 min	<9.6 min	> 60 min	> 60 min	1.59 Fold Increase	–	–	–	–	–	–	–	–
COC(=O)CCNC(=O)[C@@H]1OP(=O)(N[C@@H](Cc2ccccc2)C(=O)OC(C)(C)C)OCC1(C)C (stereo partly drawn) [compound 4]	–	–	–	–	–	–	–	–	1.2 Fold Increase	26.4 min	34.8 min	< 9.6 min	> 60 min	–	–	–	–
COC(=O)CCNC(=O)[C@@H]1OP(=O)(N[C@@H](Cc2ccc(OC(C)(C)C)cc2)C(=O)OC(C)(C)C)OCC1(C)C (stereo partly drawn) [compound 15]	18.6 min	< 15 min	< 15 min	< 15 min	< 9.6 min	<9.6 min	> 60 min	> 60 min	0.5 Fold Increase	–	–	–	–	–	–	–	–
COC(=O)CCNC(=O)[C@@H]1OP(=O)(OC(C)OC(=O)c2ccccc2)OCC1(C)C (stereo partly drawn) [compound 98, 1-(((4R)-4-((3-methoxy-3-oxopropyl)carbamoyl)-5,5-dimethyl-2-oxido-1,3,2-dioxaphosphinan-2-yl)oxy)ethyl benzoate]	< 15 min	< 15 min	< 15 min	< 15 min	< 9.6 min	<9.6 min	> 60 min	18 min	4.01 Fold Increase	–	–	–	–	–	–	–	–
COC(=O)CCNC(=O)[C@@H]1OP(=O)(N[C@H](C)C(=O)OCCc2ccccc2)OCC1(C)C (stereo partly drawn) [compound 26, methyl 3-((4R)-5,5-dimethyl-2-oxido-2-(((R)-1-oxo-1-phenethoxypropan-2-yl)amino)-1,3,2-dioxaphosphinane-4-carboxamido)propanoate]	18.6 min	< 15 min	< 15 min	< 15 min	< 9.6 min	<9.6 min	> 60 min	> 60 min	2.29 Fold Increase	–	–	–	–	–	–	–	–
COC(=O)CCNC(=O)[C@@H]1O[P@](=O)(OCOC(=O)C(C)(C)C)OCC1(C)C (single isomer, unassigned) [Compound No. 89]	< 15 min	–	< 15 min	–	< 9.6 min	–	< 9.6 min	–	154.1 Fold Increase	–	–	–	–	–	–	–	–
COC(=O)CCNC(=O)[C@@H]1OP(=O)(N[C@H](C(=O)OC)C(C)C)OCC1(C)C (stereo partly drawn) [compound 1, (2S)-methyl 2-(((4R)-4-((3-methoxy-3-oxopropyl)carbamoyl)-5,5-dimethyl-2-oxido-1,3,2-dioxaphosphinan-2-yl)amino)-3-methylbutanoate]	–	–	–	–	–	–	–	–	1.51 Fold Increase	77.4 min	25.8 min	< 9.6 min	> 60 min	78.6 min	< 15 min	<9.6 min	>60 min
COC(=O)CCNC(=O)[C@@H]1OP(=O)(N[C@@H](C)C(=O)OC[C@H]2CCC(=O)N2)OCC1(C)C (stereo partly drawn) [compound 23, methyl 3-((4R)-5,5-dimethyl-2-oxido-2-(((S)-1-oxo-1-(((R)-5-oxopyrrolidin-2-yl)methoxy)propan-2-yl)amino)-1,3,2-dioxaphosphinane-4-carboxamido)propanoate]	> 240 min	> 240 min	70.8 min	33 min	< 9.6 min	<9.6 min	< 9.6 min	57.6 min	2.08 Fold Increase	–	–	–	–	–	–	–	–
COC(=O)CCNC(=O)[C@@H]1OP(=O)(N[C@@H](Cc2cncs2)C(=O)OCc2ccccc2)OCC1(C)C (stereo partly drawn) [compound 29, benzyl (2S)-2-(((4R)-4-((3-methoxy-3-oxopropyl)carbamoyl)-5,5-dimethyl-2-oxido-1,3,2-dioxaphosphinan-2-yl)amino)-3-(thiazol-5-yl)propanoate]	36 min	15.6 min	< 15 min	< 15 min	< 9.6 min	<9.6 min	> 60 min	> 60 min	1.17 Fold Increase	–	–	–	–	–	–	–	–
COC(=O)CCNC(=O)[C@@H]1O[P@@](=O)(OCOC(=O)NCCOC(=O)[C@@H](NC(=O)OCc2ccccc2)C(C)C)OCC1(C)C (single isomer, unassigned) [2-160]	36.6 min	–	< 15 min	–	–	–	–	–	7.99 Fold Increase	–	–	–	–	–	–	–	–
COC(=O)CCNC(=O)[C@@H]1O[P@](=O)(OCOC(=O)NCCOC(=O)[C@@H](NC(=O)OCc2ccccc2)C(C)C)OCC1(C)C (single isomer, unassigned) [2-161]	25.8 min	–	< 15 min	–	–	–	–	–	71.14 Fold Increase	–	–	–	–	–	–	–	–
COC(=O)CCNC(=O)[C@@H]1OP(=O)(OCOC(C)=O)OCC1(C)C (stereo partly drawn) [Compound No. 68, Methyl 3-((4R)-2-(acetoxymethoxy)-5,5-dimethyl-2-oxido-1,3,2-dioxaphosphinane-4-carboxamido)propanoate]	< 15 min	< 15 min	< 15 min	< 15 min	–	–	–	–	125.97 Fold Increase	–	–	–	–	–	–	–	–
